Among the test systems are DLD-1 colon; DMS 114 small cell lung; DMS 273 small cell lung; KM20L2 colon; LXFL 529 NSCLC; RXF-631 renal; XF 498 CNS; HOP-18 NSCLC; MDA-N; P388 leukemia; P388/ADR leukemia; SN12K1 renal.
Holding throughout (experiment): NCI tumour cell line growth inhibition, 48 h

Drawing on PubChem BioAssay (NCI), this text covers TGI and GI50 for 35 compounds.

Where “and” joins values, the source holds several entries; their conditions need not be identical. Equal values may be shown once.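 Step 1: Grow cells in 96-well plates. Step 2: Expose to compound for 48 hours at 5 concentrations. Step 3: Interpolate endpoints linearly; if unreached, use highest concentration. Here, GI50 denotes the concentration required for 50% inhibition of growth. TGI is the concentration that stops growth completely.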 Where only a bound is given, the exact number is not on record here.

Turning to `COc1ccc(/C=C/c2nc(=S)[nH][nH]2)cc1`, the TGI in the experiment with DLD-1 colon, in the experiment with DMS 114 small cell lung, in the experiment with DMS 273 small cell lung, in the experiment with KM20L2 colon, in the experiment with LXFL 529 NSCLC and in the experiment on RXF-631 renal was > 100 µM in each case. Also, in the experiment with XF 498 CNS, the TGI was > 100 µM.

For the compound `NS(=O)(=O)c1ccc(NC(=O)CC(=O)Nc2ccc(S(N)(=O)=O)cc2)cc1`, the TGI in the experiment with DLD-1 colon, in the experiment on DMS 114 small cell lung, with DMS 273 small cell lung, in the experiment on HOP-18 NSCLC, with KM20L2 colon and with LXFL 529 NSCLC was > 100 µM in each case.

As for `Fc1ccc(F)c(C2SCc3nc4ccccc4n32)c1` (stereo not given), the TGI is > 100 µM in the experiment on DLD-1 colon; 68.8 µM in the experiment with DMS 114 small cell lung; 64.3 µM with DMS 273 small cell lung; > 100 µM with HOP-18 NSCLC; > 100 µM with KM20L2 colon; > 100 µM with LXFL 529 NSCLC.

Take `CC(=O)OCC(OC(C)=O)C(OC(C)=O)C(OC(C)=O)C(=O)CNn1c(-c2ccccc2)nc2ccc(Br)cc2c1=O` (stereo not given): the TGI in the experiment with DMS 114 small cell lung, with DMS 273 small cell lung, with KM20L2 colon, in the experiment with LXFL 529 NSCLC and in the experiment on XF 498 CNS was > 100 µM in each case.

With `Cc1c(C2Cc3ccccc3N2C(=O)/C=C\C(=O)O)c2ccccc2n1C` (stereo not given), the TGI was > 100 µM with DLD-1 colon; 40 µM with DMS 114 small cell lung; > 100 µM with DMS 273 small cell lung; 58.3 µM in the experiment with KM20L2 colon; 34.8 µM with LXFL 529 NSCLC; > 100 µM in the experiment with RXF-631 renal. Moreover, the TGI in the experiment with XF 498 CNS was 31.5 µM.

With `O=[N+]([O-])c1cc(Cl)cc2c1nc(NCCO)c1ccccc12`, the TGI in the experiment on MDA-N is > 100 µM.

For the compound `c1ccc2cc(OCC3CO3)c(OCC3CO3)cc2c1` (stereo not given), the TGI in the experiment on MDA-N was found to be 22.9 µM.

For `CCc1ccc(/C(C)=N/NC(N)=S)cc1`, the TGI with DMS 114 small cell lung was > 100 µM; in the experiment on HOP-18 NSCLC, > 100 µM; with KM20L2 colon it was > 100 µM; with XF 498 CNS, 82.6 µM.

For `CCOC(=O)CC1=NC(=Nc2cc(Cl)ccc2Cl)SC1`, the TGI with DLD-1 colon, with DMS 114 small cell lung, in the experiment with DMS 273 small cell lung, in the experiment with HOP-18 NSCLC, in the experiment with KM20L2 colon and in the experiment with LXFL 529 NSCLC was > 100 µM each time. In addition, the TGI in the experiment with XF 498 CNS was > 100 µM.

Consider `CCc1ccccc1-n1c2nc(=O)n(C)c(=O)c-2nc2ccccc21`, for which the TGI in the experiment on DLD-1 colon turned out to be 45.2 µM; in the experiment on DMS 114 small cell lung, 14.2 µM; in the experiment with DMS 273 small cell lung, 22.1 µM; with HOP-18 NSCLC it was 25 µM; in the experiment on LXFL 529 NSCLC it was 24.8 µM; with XF 498 CNS, 22 µM.

With `O=C(N=Nc1c(O)[nH]c2c(Cl)cc(Cl)cc12)c1ccncc1`, the TGI in the experiment on MDA-N turned out to be 29.1 µM.

Take `COc1ccc2[nH]c(-c3cccc(N(C)C)c3)cc(=O)c2c1`: the TGI in the experiment on MDA-N was determined as 0.156 µM.

Regarding `CN(C)c1nc(N(C)C)n2nc(-c3ccccc3[N+](=O)[O-])nc2n1`, the TGI with DLD-1 colon, in the experiment on DMS 114 small cell lung, in the experiment with DMS 273 small cell lung, in the experiment on HOP-18 NSCLC, with KM20L2 colon and in the experiment with LXFL 529 NSCLC was > 100 µM in each case. Further, the TGI in the experiment on XF 498 CNS was > 100 µM.

Take `CC1=Nc2c([nH]c(=S)[nH]c2=O)NC(c2ccc(Cl)c(Cl)c2)C1` (stereo not given): the TGI with DLD-1 colon was > 56.7 µM; with DMS 114 small cell lung, > 81 µM; in the experiment with DMS 273 small cell lung it was > 72.9 µM; in the experiment on HOP-18 NSCLC, > 100 µM; in the experiment on KM20L2 colon it was > 62.9 µM; with LXFL 529 NSCLC, 37.8 µM. In the experiment with XF 498 CNS, the TGI was > 100 µM.

Regarding `CC[C@@H](C)[C@H]([C@H](CC(=O)N1CCC[C@@H]1[C@@H](OC)[C@H](C)C(=O)N[C@H](Cc1ccccc1)c1nccs1)OC)N(C)C(=O)[C@H](NC(=O)[C@@H](C(C)C)N(C)C)C(C)C`, the TGI came out at 0.00123 µM in the experiment with DMS 114 small cell lung; 0.000234 µM with KM20L2 colon; 0.581 µM with P388 leukemia; 0.000573 µM in the experiment with P388/ADR leukemia; 0.00731 µM with RXF-631 renal.

`O=C1NC(=O)C2(CCC(O)C2)c2cc[n+]([O-])cc21` (stereo not given): the TGI in the experiment on MDA-N was > 100 µM.

For the compound `CCOC(=O)C1=C(NC(C)(C)C)OCC1=O`, the TGI in the experiment on DLD-1 colon, with KM20L2 colon, in the experiment on LXFL 529 NSCLC, with RXF-631 renal and in the experiment with XF 498 CNS was > 100 µM in each case.

As for `CC(C)CC(CNC(Cc1ccc(Cl)cc1)C(N)=O)NC(=O)C(Cc1cnc[nH]1)NC(=O)CNC(=O)C(NC(=O)C(C)NC(=O)C(Cc1c[nH]c2ccccc12)NC(=O)C(CCC(=O)O)NC(=O)C(N)Cc1ccccc1)C(C)C` (stereo not given), the TGI in the experiment with DLD-1 colon, with DMS 114 small cell lung, in the experiment with DMS 273 small cell lung, with KM20L2 colon, in the experiment on LXFL 529 NSCLC and in the experiment on RXF-631 renal was > 133 µM in each case. The TGI with XF 498 CNS is > 133 µM.

As to `O=C(O)c1ccc(N=Nc2cc(S(=O)(=O)O)c3cccnc3c2O)cc1`, the TGI with DLD-1 colon, in the experiment on DMS 114 small cell lung, in the experiment with DMS 273 small cell lung, with KM20L2 colon and in the experiment on XF 498 CNS was > 100 µM throughout.

Regarding `COc1cc(OC)c(OC)cc1/C=C1\C=Cc2ccccc21`, in the experiment on MDA-N, the TGI was found to be 58.2 µM.

`O=C(CCCNC(=O)OCc1ccccc1)OCc1ccc2c(c1)C(=O)c1ccccc1C2=O`: the TGI in the experiment on DLD-1 colon, with DMS 114 small cell lung, in the experiment with DMS 273 small cell lung, in the experiment with KM20L2 colon, in the experiment on LXFL 529 NSCLC and with RXF-631 renal was > 100 µM each time.

For the compound `O=C1C=CN(C2OC(CO)C(O)C2O)C(=O)C1` (stereo not given), the GI50 in the experiment with DLD-1 colon was 21.5 µM; with DMS 273 small cell lung, > 625 µM; with HOP-18 NSCLC, > 625 µM; in the experiment with KM20L2 colon, 19.9 µM; with SN12K1 renal, 24.7 µM and 14.4 µM; with XF 498 CNS, 409 µM. Also, the TGI in the experiment on DLD-1 colon is 625 µM and > 2500 µM; with DMS 273 small cell lung, > 2500 µM; in the experiment on HOP-18 NSCLC it was > 2500 µM; with KM20L2 colon, 625 µM and > 1160 µM; in the experiment with MDA-N, > 2500 µM; in the experiment on P388 leukemia, 52.5 µM. In addition, the TGI in the experiment with P388/ADR leukemia is > 992 µM; in the experiment with SN12K1 renal it was 625 µM and > 810 µM; in the experiment with XF 498 CNS, 1940 µM.

`Cc1[nH]c(=O)nc(CC(O)(c2ccccc2)c2ccccc2)c1-c1ccccc1`: the TGI with DLD-1 colon, in the experiment on DMS 114 small cell lung, with DMS 273 small cell lung, in the experiment on HOP-18 NSCLC, in the experiment on KM20L2 colon and in the experiment with LXFL 529 NSCLC was > 100 µM throughout. The TGI in the experiment on RXF-631 renal was > 100 µM.

As to `O=C1OC(c2ccccc2)=N/C1=C\c1c(O)cc(O)cc1O`, the TGI in the experiment with DMS 114 small cell lung, in the experiment with DMS 273 small cell lung, in the experiment on HOP-18 NSCLC, with KM20L2 colon and in the experiment with LXFL 529 NSCLC was > 100 µM throughout.

`COc1ccc(CCNCc2cccc(OC)c2OC)cc1OC`: the TGI with DLD-1 colon, in the experiment with DMS 114 small cell lung, with DMS 273 small cell lung, in the experiment on KM20L2 colon, in the experiment on LXFL 529 NSCLC and in the experiment with RXF-631 renal was > 100 µM throughout. In addition, in the experiment on XF 498 CNS, the TGI was > 100 µM.

Regarding `O=C(/C=C/c1c(O)ccc2ccccc12)c1cccc2ccccc12`, the TGI in the experiment on DLD-1 colon, in the experiment on DMS 114 small cell lung, in the experiment with DMS 273 small cell lung, in the experiment on HOP-18 NSCLC, in the experiment with KM20L2 colon and in the experiment on LXFL 529 NSCLC was > 100 µM in each case. The TGI in the experiment with XF 498 CNS is > 100 µM.

`OCC(O)COc1c(Cl)ccc(Cl)c1Cl` (stereo not given): the TGI in the experiment on DLD-1 colon, with DMS 114 small cell lung, in the experiment on DMS 273 small cell lung, in the experiment with HOP-18 NSCLC, in the experiment with KM20L2 colon and with LXFL 529 NSCLC was > 100 µM in each case. Besides, the TGI in the experiment with XF 498 CNS was > 100 µM.

For the compound `O=C(CCc1ccccc1)On1nnc2ccccc2c1=O`, the TGI in the experiment on DLD-1 colon, in the experiment with DMS 114 small cell lung, in the experiment on DMS 273 small cell lung, in the experiment with KM20L2 colon and in the experiment with LXFL 529 NSCLC was > 100 µM throughout.

As for `CC1CCC2C(C)C3C(CC4C5CC=C6CC(OC7OC(CO)C(O)C(OC8OC(CO)C(O)C(O)C8O)C7OC7OC(C)C(O)C(O)C7O)CCC6(C)C5CCC43C)N2C1` (stereo not given), in the experiment with MDA-N, the GI50 is > 2.5 µg/mL; the TGI is 23.7 µM and > 2.5 µg/mL.

Take `COc1ccc(/C(Cl)=C(\C=O)c2ccc(Br)cc2)cc1OC`: the TGI in the experiment with DLD-1 colon, with DMS 273 small cell lung, with HOP-18 NSCLC, in the experiment with KM20L2 colon, with LXFL 529 NSCLC and with RXF-631 renal was > 100 µM throughout. This compound gave a TGI in the experiment with XF 498 CNS of 39.8 µM.

For the compound `C[C@H]1COC2(c3ccccc3)CCC(=O)N12` (stereo not given in full), the TGI in the experiment with DLD-1 colon, in the experiment with DMS 114 small cell lung, in the experiment with DMS 273 small cell lung, in the experiment on HOP-18 NSCLC, in the experiment with KM20L2 colon and in the experiment with XF 498 CNS was > 100 µM throughout.

As for `N#CCC(=O)N/N=C1/C(=O)NC(=O)C(=O)C1c1nc2ccccc2s1` (stereo not given), the TGI in the experiment with DLD-1 colon, in the experiment on DMS 114 small cell lung, in the experiment on DMS 273 small cell lung, in the experiment with HOP-18 NSCLC, with KM20L2 colon and with LXFL 529 NSCLC was > 100 µM throughout. The TGI in the experiment with RXF-631 renal is > 100 µM.

In the case of `O=C(O)C(Br)C(Br)c1ccccc1[N+](=O)[O-]` (stereo not given), the TGI in the experiment with MDA-N is > 100 µM.

As to `COC(=O)C1=C(c2cc(OC)c(OC)c(OC)c2)OC(c2cc(OC)c(OC)c(OC)c2)C1COC(C)=O` (stereo not given), the TGI with DLD-1 colon is > 100 µM; with DMS 114 small cell lung, > 100 µM; in the experiment with DMS 273 small cell lung, > 100 µM; with KM20L2 colon, > 100 µM; in the experiment with LXFL 529 NSCLC it was > 100 µM; in the experiment on RXF-631 renal, 45.1 µM. Also, the TGI with XF 498 CNS was > 100 µM.

`O=C(O)c1ccc(S(=O)(=O)N=Nc2c(O)[nH]c3ccccc23)cc1`: in the experiment with MDA-N, the TGI is > 100 µM.
